Experimental data taken from US9108930B2, “N1- and N2-carbamoyl-1,2,3-triazole serine hydrolase inhibitors and methods” (The Scripps Research Institute, priority 2011, dated 2015).

Experiments:
[1] = test system: peritoneal macrophages of Pla2g4a-/- mice; experiment: Metabolomics of macrophages from treated Pla2g4a-/- mice; format: in vivo, mouse; conditions: 5 mg/kg, 4 hours, i.p.
Method: Pla2g4a^−/− mice were treated with KT109 or KT195 (5 mg/kg, 4 hours, i.p.), thioglycolate-elicited macrophages were harvested, and then the macrophages were subjected to metabolomics analysis. The cellular levels of PGE2 and PGD2 were measured.
Metabolites were quantified by either selected reaction monitoring (SRM) of each metabolite using an Agilent G6410B Triple-Quad instrument or untargeted metabolomic analysis (substrate assays) using an Agilent 1100 series LC-MSD SL instrument. […] For analysis of diacylglycerols (DAGs) a Luna C5 column (50 mm×4.60 mm with 5 μm diameter particles) from Phenomenex was used. Mobile phase A was made of 95:5 v/v H2O:MeOH, and mobile phase B was composed of 60:35:5 v/v/v i-PrOH:MeOH:H2O. Ammonium hydroxide (0.1%) and formic acid (0.1%) was included to assist in ion formation in negative and positive ionization modes, respectively. For analysis of DAGs, 5 mM ammonium formate was also used in addition to 0.1% formic acid to assist in positive ionization and NH4+ adduct formation. For metabolite measurements, cells were resuspended in 1 mL of a 1% NaCl solution and added to 3 mL of a 2:1 v/v CHCl3:MeOH doped with 1 nmol of the following internal standards: d5-2-arachidonoylglycerol (2-AG), d8-arachidonic acid (AA), and d8-1-stearoyl-2-arachidonoylglycerol (SAG). The mixture was vortexed and then centrifuged (1,400×g, 3 min). The organic layer was removed, CHCl3 was added until the final volume was again 4 ml, and the extraction was repeated. The combined organic extracts were dried under a stream of N2 and resolubilized in 2:1 v/v CHCl3:MeOH (120 μl). 30 μL of resolubilized lipids were injected for positive mode (MAGs and DAGs) and negative mode (free fatty acids and eicosanoids) measurements.
The following parameters (MS) were used to measure the indicated metabolites by SRM (precursor ion, product ion, collision energy in V, polarity): C20:4 MAG or 2-AG (379, 287, 8, positive), d5-2-AG (384, 287, 5, positive), C18:0/C20:4 DAG or SAG (662, 341, 15, positive), d8-SAG (671, 671, 0, positive), C18:1/C20:4 DAG (660, 341, 15, positive), C16:0/C20:4 DAG (634, 341, 15, positive), C14:0/C20:4 DAG (606, 341, 15, positive), arachidonic acid or AA (303, 303, 0, negative), d8-AA (311, 267, 5, negative), PGE2 (351, 271, 10, negative), and PGD2 (351, 271, 10, negative). MS analysis was performed with an electrospray ionization source with the following parameters: drying gas temperature=350° C., drying gas flow rate=11 L/min, and the nebulizer pressure=35 psi. Prostaglandin SRM parameters were based on previously reported methods and transitions. Metabolites targeted by SRM were quantified by measuring the area under the peak in comparison with the internal standards. […]

[2] = target: T1, DAGLB (Mus musculus, UniProt Q91WC9); experiment: ABPP-MudPIT of peritoneal macrophages from treated mice; conditions: in vivo
T1 sequence (Q91WC9 1-669): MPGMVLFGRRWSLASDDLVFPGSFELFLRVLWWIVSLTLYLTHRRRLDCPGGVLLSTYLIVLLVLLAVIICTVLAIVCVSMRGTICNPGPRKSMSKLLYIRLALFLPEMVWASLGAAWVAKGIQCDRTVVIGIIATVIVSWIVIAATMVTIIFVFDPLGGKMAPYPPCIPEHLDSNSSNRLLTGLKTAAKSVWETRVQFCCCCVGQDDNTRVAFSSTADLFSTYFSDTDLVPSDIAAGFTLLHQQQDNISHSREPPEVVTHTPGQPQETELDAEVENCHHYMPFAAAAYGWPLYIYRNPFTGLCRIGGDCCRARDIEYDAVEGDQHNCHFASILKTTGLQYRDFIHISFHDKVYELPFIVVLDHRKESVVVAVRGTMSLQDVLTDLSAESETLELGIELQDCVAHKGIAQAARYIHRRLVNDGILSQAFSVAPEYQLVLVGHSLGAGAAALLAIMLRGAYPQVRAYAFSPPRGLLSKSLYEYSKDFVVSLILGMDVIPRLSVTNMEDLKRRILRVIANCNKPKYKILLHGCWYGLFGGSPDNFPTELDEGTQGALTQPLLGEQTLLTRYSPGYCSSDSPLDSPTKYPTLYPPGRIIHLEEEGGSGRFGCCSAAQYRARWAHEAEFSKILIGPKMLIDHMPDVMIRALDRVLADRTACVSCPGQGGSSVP

[3] = target: T1, DAGLB; experiment: In situ inhibition in Neuro2A cells, competitive ABPP with HT-01; format: cell-based; parameters: from tissue; host or cells: thioglycolate-elicited peritoneal macrophages of treated mice; conditions: 4 hours
Method: For gel-based competitive ABPP studies, proteomes from cells treated in situ with inhibitor for 4 h at 37° C. at the indicated concentrations (n=3) were labeled with HT-01 (1 μM) for 30 min at 37° C. After quenching, SDS-PAGE, and in-gel visualization, the percentage of enzyme activity remaining was determined by measuring the integrated optical intensity of the bands using IMAGER® software. For LC-MS substrate assays, the percentage of enzyme activity remaining was determined by comparing the specific activity (amount of 2-AG formed per min per mg of proteome) of inhibitor with DMSO-treated samples. The IC50 values were determined from a dose-response curve generated using GraphPad PRISM® software.

[4] = test system: serine hydrolases in the peritoneal macrophage proteome; experiment: ABPP-MudPIT of peritoneal macrophages from treated mice, off-targets; conditions: mouse, in vivo
[5] = target: T2, ABHD6 (Mus musculus, UniProt Q8R2Y0); experiment: ABPP-MudPIT of peritoneal macrophages from treated mice; parameters: from tissue; host or cells: thioglycolate-elicited peritoneal macrophages of mice; conditions: in vivo
T2 sequence (Q8R2Y0 1-336): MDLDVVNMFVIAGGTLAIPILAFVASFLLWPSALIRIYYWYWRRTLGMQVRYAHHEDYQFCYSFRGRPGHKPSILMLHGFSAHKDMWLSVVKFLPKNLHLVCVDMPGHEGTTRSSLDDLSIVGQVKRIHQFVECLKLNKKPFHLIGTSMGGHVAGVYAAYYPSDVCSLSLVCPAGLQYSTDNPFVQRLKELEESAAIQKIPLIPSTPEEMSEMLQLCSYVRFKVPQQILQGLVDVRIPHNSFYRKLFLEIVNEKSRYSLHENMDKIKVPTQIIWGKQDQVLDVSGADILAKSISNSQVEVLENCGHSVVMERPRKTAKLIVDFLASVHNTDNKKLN

## O=C(N1CCCCC1Cc1ccccc1)n1cc(-c2ccc(-c3ccccc3)cc2)nn1 (centres unmarked) [KT109]
[1]
  PGD2 level: remained undetectable
  change in PGE2: significant decrease in PGE2
[2]
  DAGLB inhibition by spectral counting: confirmed inhibition of DAGLB
[3]
  IC50: 14 nM
[4]
  off-target activities: carboxylesterases (Ces3 and Ces2g)

## COc1ccc(-c2ccc(-c3cn(C(=O)N4CCCCC4c4ccccc4)nn3)cc2)cc1 (centres unmarked) [KT195]
[1]
  PGD2 level: remained undetectable
  change in PGE2: not observed
[2]
  DAGLB inhibition by spectral counting: no activity against DAGLB
[3]
  activity against DAGLB in Neuro2A cells: negligible activity against DAGLB
[4]
  off-target activities: also inhibited
[5]
  ABHD6 inhibition by spectral counting: complete inhibition of ABHD6
